# According to PMC8161026, “Synthesis and Anticancer Activity Evaluation of 5-[2-Chloro-3-(4-nitrophenyl)-2-propenylidene]-4-thiazolidinones” (Molecules, 2021):
# Key:
# AGS (gastric cancer) = test: MTT cell viability assay; type: cell-based; conditions: Homo sapiens, 24 h
# Description: (§1) In the second stage of the research, Ciminalum-thiazolidinone hybrids were investigated for antitumor activity on the lines of gastric cancer (AGS), human colon cancer (DLD-1), and breast cancers (MCF-7 and MDA-MB-231). The study was performed in the MTT assay according to the method described previously. The studied cancer line was sensitive to the action of the studied compounds that inhibited its growth in micromolar ranges of GI50. The hit compounds that inhibited the growth of all four cancer lines with the lowest GI50 values were [5-[2-chloro-3-(4-nitrophenyl)prop-2-enylidene]-rhodanines 2c, 2d, 2h, and 2i (Table 4).
# [1] = tested on: DLD-1 (human colon cancer); test: MTT cell viability assay; type: cell-based; conditions: DLD-1, MTT, 24 h
# Description: as §1
# MCF-7 (breast cancer) = test: MTT cell viability assay; type: cell-based; conditions: Homo sapiens, MCF7; MCF-7, MTT, 24 h
# Description: as §1
# [2] = tested on: MDA-MB-231 (breast cancer); test: MTT cell viability assay; type: cell-based; conditions: Homo sapiens; MDA-MB-231, MTT, 24 h
# Description: as §1
# SR = conditions: for TGI: SR (Leukemia), 48 h, SRB
# NCI-H460 = NCI-H460 (Non-Small Cell Lung Cancer), 48 h, SRB
# KM12 [3] = conditions: KM12 (Colon Cancer), 48 h, SRB
# SW-620 = SW-620 (Colon Cancer), 48 h, SRB
# LOX IMVI = LOX IMVI (Melanoma), 48 h, SRB
# K-562 = test: cells; conditions: Homo sapiens, K562, 48 h; for CC50: read-out: LC50
# 786-0 = 786-0 (Renal Cancer), 48 h, SRB
# SN12C = SN12C (Renal Cancer), 48 h, SRB
# PC-3 [4] = conditions: PC-3 (Prostate Cancer), 48 h, SRB
# NCI-H23 = test: cells; conditions: Homo sapiens, NCI-H23, 48 h; for CC50: read-out: LC50
# KM12 [5] = test: cells; conditions: Homo sapiens, KM12, 48 h; for CC50: read-out: LC50
# PC-3 [6] = test: cells; conditions: Homo sapiens, PC-3, 48 h; for CC50: read-out: LC50
# DU-145 = test: cells; conditions: Homo sapiens, DU-145, 48 h; for CC50: read-out: LC50
# NCI-H522 = test: NCI DTP 60 cell line screen, SRB
# Colo 205 = test: NCI DTP 60 cell line screen, SRB; conditions: for TGI: Colo 205 (Colon Cancer), 48 h, SRB; for GI50 / CC50: Homo sapiens, COLO 205, 48 h; for CC50: read-out: LC50
# SK-MEL-5 = test: NCI DTP 60 cell line screen, SRB; conditions: for GI50 / CC50: Homo sapiens, SK-MEL-5, 48 h; for CC50: read-out: LC50; for TGI: SK-MEL-5 (Melanoma), 48 h, SRB
# UACC-62 = test: NCI DTP 60 cell line screen, SRB; conditions: for GI50 / CC50: Homo sapiens, UACC-62, 48 h; for CC50: read-out: LC50; for TGI: UACC-62 (Melanoma), 48 h, SRB
# OVCAR-5 = test: NCI DTP 60 cell line screen, SRB
# TK-10 = test: NCI DTP 60 cell line screen, SRB; conditions: for GI50 / CC50: Homo sapiens, TK-10, 48 h; for CC50: read-out: LC50; for TGI: TK-10 (Renal Cancer), 48 h, SRB
# UO-31 = test: NCI DTP 60 cell line screen, SRB; conditions: for GI50 / CC50: Homo sapiens, UO-31, 48 h; for CC50: read-out: LC50; for TGI: UO-31 (Renal Cancer), 48 h, SRB
# NCI/ADR-Res = test: NCI DTP 60 cell line screen, SRB; conditions: 48 h; for GI50 / CC50: Homo sapiens, NCI/ADR-RES; for CC50: read-out: LC50; for TGI: NCI/ADR-Res (Breast Cancer), SRB
# HS 578T = test: NCI DTP 60 cell line screen, SRB; conditions: 48 h
# SK-MEL-28 = SK-MEL-28 (Melanoma), 48 h, SRB
# HT-29 = test: NCI DTP 60 cell line screen, SRB
smiles,measurement,setting,value
"O=C1/C(=C/C(Cl)=C/c2ccc([N+](=O)[O-])cc2)SC(=S)N1/N=C\C(Cl)=C\c1ccc([N+](=O)[O-])cc1 [Compound 2c, 5-[(Z,2Z)-2-Chloro-3-(4-nitrophenyl)-2-propenylidene]-3-[(Z,2Z)-2-chloro-3-(4-nitrophenyl)-2-propenylideneamino]-2-thioxo-4-thiazolidinone]",GI50,AGS (gastric cancer),4.43 µM
same,GI50,[1],6.34 µM
same,GI50,MCF-7 (breast cancer),3.6 µM
same,GI50,[2],1.59 µM
same,TGI,SR,12.0 µM
same,TGI,NCI-H460,32.3 µM
same,TGI,KM12 [3],59.1 µM
same,TGI,SW-620,> 100 µM
same,TGI,LOX IMVI,28.8 µM
same,GI50,K-562,3.98 µM
same,CC50,K-562,> 100 µM
same,TGI,786-0,30.7 µM
same,TGI,SN12C,> 100 µM
same,TGI,PC-3 [4],45.8 µM
same,GI50,NCI-H23,16.6 µM
same,CC50,NCI-H23,60.3 µM
same,GI50,KM12 [5],20.6 µM
same,CC50,KM12 [5],> 100 µM
same,GI50,PC-3 [6],8.1 µM
same,CC50,PC-3 [6],> 100 µM
same,GI50,DU-145,21.7 µM
same,CC50,DU-145,> 100 µM
same,GI50,"NCI-H522; Homo sapiens, NCI-H522, 48 h",16.3 µM
same,CC50,"NCI-H522; Homo sapiens, NCI-H522, 48 h, read-out: LC50",66.2 µM
same,TGI,"NCI-H522; NCI-H522 (Non-Small Cell Lung Cancer), 48 h, SRB",32.9 µM
same,TGI,Colo 205,> 100 µM
same,GI50,Colo 205,56.2 µM
same,CC50,Colo 205,> 100 µM
same,GI50,SK-MEL-5,19.4 µM
same,CC50,SK-MEL-5,75.6 µM
same,TGI,SK-MEL-5,38.3 µM
same,GI50,UACC-62,13.6 µM
same,CC50,UACC-62,58 µM
same,TGI,UACC-62,28.1 µM
same,GI50,"OVCAR-5; Homo sapiens, OVCAR-5, 48 h",15.1 µM
same,CC50,"OVCAR-5; Homo sapiens, OVCAR-5, 48 h, read-out: LC50",86.6 µM
same,TGI,"OVCAR-5; OVCAR-5 (Ovarian Cancer), 48 h, SRB",36.2 µM
same,GI50,TK-10,28 µM
same,CC50,TK-10,> 100 µM
same,TGI,TK-10,69.6 µM
same,GI50,UO-31,17.5 µM
same,CC50,UO-31,59.1 µM
same,TGI,UO-31,32.2 µM
same,GI50,NCI/ADR-Res,6.55 µM
same,CC50,NCI/ADR-Res,61.7 µM
same,TGI,NCI/ADR-Res,20.8 µM
same,TGI,"HS 578T; HS 578T (Breast Cancer), SRB",> 100 µM
same,GI50,"HS 578T; Homo sapiens, Hs-578T",29.5 µM
same,CC50,"HS 578T; Homo sapiens, Hs-578T, read-out: LC50",> 100 µM
"O=C1/C(=C/C(Cl)=C/c2ccc([N+](=O)[O-])cc2)SC(=S)N1c1ccc(O)cc1 [Compound 2f, 5-[(Z,2Z)-2-Chloro-3-(4-nitrophenyl)-2-propenylidene]-3-(4-hydroxyphenyl)-2-thioxo-4-thiazolidinone]",TI (Therapeutic Index),SR; GI50 (normal blood lymphocyte)/GI50 (SR),">10,000"
same,TGI,SR,0.138 µM
same,TGI,NCI-H460,> 100 µM
same,TGI,KM12 [3],> 100 µM
same,TGI,SW-620,1.52 µM
same,TGI,LOX IMVI,3.70 µM
same,TGI,SK-MEL-28,47.7 µM
same,GI50,K-562,0.521 µM
same,CC50,K-562,> 100 µM
same,TGI,786-0,3.83 µM
same,TGI,SN12C,4.41 µM
same,TGI,PC-3 [4],84.8 µM
same,GI50,NCI-H23,1.48 µM
same,CC50,NCI-H23,6.52 µM
same,GI50,KM12 [5],2.85 µM
same,CC50,KM12 [5],> 100 µM
same,GI50,PC-3 [6],2.29 µM
same,CC50,PC-3 [6],> 100 µM
same,GI50,DU-145,0.666 µM
same,CC50,DU-145,50.1 µM
same,TGI,Colo 205,> 100 µM
same,GI50,Colo 205,4.34 µM
same,CC50,Colo 205,> 100 µM
same,TGI,"HT-29; HT-29 (Colon Cancer), 48 h, SRB",> 100 µM
same,GI50,"HT-29; Homo sapiens, HT-29, 48 h",2.14 µM
same,CC50,"HT-29; Homo sapiens, HT-29, 48 h, read-out: LC50",> 100 µM
same,GI50,SK-MEL-5,< 0.01 µM
same,CC50,SK-MEL-5,3.41 µM
same,TGI,SK-MEL-5,< 0.01 µM
same,GI50,UACC-62,1.69 µM
same,CC50,UACC-62,8.78 µM
same,TGI,UACC-62,3.85 µM
same,GI50,TK-10,4.87 µM
same,CC50,TK-10,> 100 µM
same,TGI,TK-10,29.0 µM
same,GI50,UO-31,2.08 µM
same,CC50,UO-31,> 100 µM
same,TGI,UO-31,3.98 µM
same,GI50,NCI/ADR-Res,2.17 µM
same,CC50,NCI/ADR-Res,> 100 µM
same,TGI,NCI/ADR-Res,6.13 µM
